# Patent US9751826B2, “4-vinyl-2-cyclopenten-1-one derivatives, the production thereof, and the use of same as an antibiotic agent” (Centre National de la Recherche Scientifique (CNRS), priority 2014, dated 2017)
# Key:
# Type in all cases: cell-based
# [1] = system: Streptococcus pneumoniae (ATCC 49619); assay: Antibiotic test, inhibition zone technique
# Protocol: (§1) Once purified, the molecule of the compound of formula (Ia) is redissolved in suitable solvents and at a suitable concentration, preferentially in dimethyl sulfoxide (DMSO) at a concentration of 10 mg/ml. This initial solution is then diluted according to the various biological tests to be performed. Two series of tests were carried out. The molecule of the compound of formula (Ia) was used in antibiotic tests, employing the inhibition zone technique, on various Gram-positive and Gram-negative bacteria, in the amount of 100 μg. In parallel, similar tests are carried out with control antibiotics in varying amounts depending on the antibiotic, either 10 μg or 30 μg.
# [2] = system: Enterobacter cloacae (ATCC 13047); assay: Antibiotic test, inhibition zone technique
# Protocol: as §1
# [3] = system: Escherichia coli (ATCC 25922); assay: Antibiotic test, inhibition zone technique
# Protocol: as §1
# [4] = system: Klebsiella pneumoniae (ATCC 1001); assay: Antibiotic test, inhibition zone technique
# Protocol: as §1
# [5] = system: Micrococcus luteus (ATCC 10240); assay: Antibiotic test, inhibition zone technique
# Protocol: as §1
# [6] = system: Acinetobacter baumannii (ATCC 19606); assay: Antibiotic test, inhibition zone technique
# Protocol: as §1
# [7] = system: Bacillus subtilis (ATCC 6633); assay: Antibiotic test, inhibition zone technique
# Protocol: as §1
# [8] = system: Pseudomonas aeruginosa (ATCC 27853); assay: Antibiotic test, inhibition zone technique; conditions: 10 μg deposited
# Protocol: as §1
# [9] = system: Staphylococcus aureus (ATCC 25923); assay: Antibiotic test, inhibition zone technique
# Protocol: as §1
# [10] = system: KB cancer cell line (carcinoma); assay: Cytotoxicity test on KB cancer cell line
# Protocol: (§2) Once purified, the molecule of the compound of formula (Ia) is redissolved in suitable solvents and at a suitable concentration, preferentially in dimethyl sulfoxide (DMSO) at a concentration of 10 mg/ml. This initial solution is then diluted according to the various biological tests to be performed. Two series of tests were carried out. Tests for cytotoxicity on a KB cancer cell line (carcinoma) and an equivalent line of non-cancerous MRC5 cells. The following table presents the percentage of inhibition of growth by the molecule of the compound of formula (Ia) at concentrations of 1 and 10 micromolar.
# MRC5 cells = assay: Cytotoxicity test on non-cancerous MRC5 cells
# Protocol: as §2
# [11] = system: various target pathogenic microorganisms; assay: Antibiotic activity at 1 to 100 μg (FIG. 7); conditions: amounts of 1 to 100 μg
# Protocol: The molecule of the compound of formula (Ia) was used in antibiotic tests, employing the inhibition zone technique, on various Gram-positive and Gram-negative bacteria, in the amount of 100 μg. In parallel, similar tests are carried out with control antibiotics in varying amounts depending on the antibiotic, either 10 μg or 30 μg.
# FIG. 7 illustrates the antibiotic activity of the compound of formula (Ia) on various target pathogenic microorganisms in amounts of 1 to 100 μg in comparison with chloramphenicol and gentamycin at 30 μg and 10 μg, respectively. […] Indeed, inhibition by 1 μg of the compound of formula (Ia) is equivalent to that obtained with 30 μg of chloramphenicol. The same observations and conclusions can be made for all the strains that are sensitive to the compound of formula (Ia) as shown in FIG. 7.
compound,measurement,setting,value
Penicillin [reference compound],Inhibition zone by the reference antibiotics,[1]; 30 μg deposited,3.5 cm
"O=C(N[C@H](CO)[C@H](O)c1ccc([N+](=O)[O-])cc1)C(Cl)Cl [Chloramphenicol, reference compound]",Inhibition zone by the reference antibiotics,[2]; 30 μg deposited,1.5 cm
same,Inhibition zone by the reference antibiotics,[3]; 30 μg deposited,1.0 cm
same,Inhibition zone by the reference antibiotics,[4]; 30 μg deposited,2.5 cm
same,Inhibition zone by the reference antibiotics,[5]; 30 μg deposited,3.2 cm
Gentamycin [reference compound],Inhibition zone by the reference antibiotics,[6]; 10 μg deposited,0.9 cm
same,Inhibition zone by the reference antibiotics,[7]; 10 μg deposited,1.2 cm
same,Inhibition zone by the reference antibiotics,[8],1.3 cm
same,Inhibition zone by the reference antibiotics,[9]; 10 μg deposited,1.2 cm
COC(=O)/C=C/[C@@]1(O)C=CC(=O)C1 [compound of formula (Ia)],cytotoxicity against tumor cells,[10]; 1 and 10 micromolar,no cytotoxicity is observed
same,inhibition at 10 µM,"[10]; Homo sapiens, KB cells, 10^−5 M, read-out: percentage of inhibition of growth",0%
same,inhibition at 1 µM,"[10]; Homo sapiens, KB cells, 10^−6 M, read-out: percentage of inhibition of growth",0%
same,cytotoxicity against healthy cells,MRC5 cells; 1 and 10 micromolar,no cytotoxicity is observed
same,inhibition at 10 µM,"MRC5 cells; Homo sapiens, 10^−5 M, read-out: percentage of inhibition of growth",2 ± 12%
same,inhibition at 1 µM,"MRC5 cells; Homo sapiens, 10^−6 M, read-out: percentage of inhibition of growth",1 ± 3%
same,Inhibition zone for 100 μg of the compound of formula (Ia),[6]; 100 μg deposited,3.2 cm
same,Inhibition zone for 100 μg of the compound of formula (Ia),[7]; 100 μg deposited,2.7 cm
same,Inhibition zone for 100 μg of the compound of formula (Ia),[2]; 100 μg deposited,1.2 cm
same,Inhibition zone for 100 μg of the compound of formula (Ia),[3]; 100 μg deposited,2.7 cm
same,amount giving inhibition equivalent to that of 30 μg of chloramphenicol,[3]; FIG. 7,1 µg
same,antibiotic activity compared with chloramphenicol,"[3]; FIG. 7, 1 to 100 μg vs chloramphenicol 30 μg",much higher activity than that of chloramphenicol
same,Inhibition zone for 100 μg of the compound of formula (Ia),[4]; 100 μg deposited,2.9 cm
same,Inhibition zone for 100 μg of the compound of formula (Ia),[5]; 100 μg deposited,3.2 cm
same,Inhibition zone for 100 μg of the compound of formula (Ia),[9]; 100 μg deposited,3.0 cm
same,Inhibition zone for 100 μg of the compound of formula (Ia),[1]; 100 μg deposited,2.0 cm
same,dose dependence of antibiotic activity,[11],dose-dependent
